# Reference: patent publication US7709509B2, “Oxadiazolones and derivatives thereof as peroxisome proliferator-activated receptor (PPAR) delta agonists” (Sanofi-Aventis Deutschland GmbH, priority 2004, dated 2010)
# Where two headings read alike, the source gives them in different places.
# Tests used:
# [1] = target: T1, human PPARalpha (Homo sapiens, UniProt Q07869); assay: Cellular PPARalpha assay (HEK PPARalpha reporter cell line, luciferase); assay type: cell-based; conditions: GR-GAL4-humanPPARalpha-LBD
# T1 construct: human PPARalpha receptor (amino acids S167-Y468); expressed in transfected cells; host or cells: HEK cells, stably transfected (pcDNA3, CMV promoter)
# T1 sequence (Q07869 167-468): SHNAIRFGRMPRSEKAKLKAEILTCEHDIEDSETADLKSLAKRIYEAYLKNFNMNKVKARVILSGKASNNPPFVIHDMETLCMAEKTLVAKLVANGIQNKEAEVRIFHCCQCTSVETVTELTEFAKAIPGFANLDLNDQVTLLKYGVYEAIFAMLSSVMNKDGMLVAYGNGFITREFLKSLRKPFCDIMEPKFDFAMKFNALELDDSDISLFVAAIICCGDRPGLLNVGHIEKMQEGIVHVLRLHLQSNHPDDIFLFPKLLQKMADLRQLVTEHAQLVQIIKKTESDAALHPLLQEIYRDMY
# Method: Determination of EC50 Values of PPAR Agonists in the Cellular PPARalpha Assay
# (§1) The potency of substances which bind to human PPARalpha and activate it in an agonistic manner is analyzed using a stably transfected HEK cell line (HEK=human embryo kidney) which is referred to here as PPARalpha reporter cell line. It contains two genetic elements, a luciferase reporter element (pdeltaM-GAL4-Luc-Zeo) and a PPARalpha fusion protein (GR-GAL4-humanPPARalpha-LBD) which mediates expression of the luciferase reporter element depending on a PPARalpha ligand. The stably and constitutively expressed fusion protein GR-GAL4-humanPPARalpha-LBD binds in the cell nucleus of the PPARalpha reporter cell line via the GAL4 protein portion to the GAL4 DNA binding motifs 5′-upstream of the luciferase reporter element which is stably integrated in the genome of the cell line. There is only weak expression of the luciferase reporter gene in the absence of a PPARalpha ligand if fatty acid-depleted fetal calf serum (cs-FCS) is used in the assay. PPARalpha ligands bind and activate the PPARalpha fusion protein and thereby stimulate the expression of the luciferase reporter gene. The luciferase which is formed can be detected by means of chemiluminescence via an appropriate substrate.
# The PPARalpha reporter cell line was prepared in two stages. Firstly, the luciferase reporter element was constructed and stably transfected into HEK cells. For this purpose, five binding sites of the yeast transcription factor GAL4 (Accession # AF264724) were cloned in 5′-upstream of a 68 bp-long minimal MMTV promoter (Accession # V01175). The minimal MMTV promoter section contains a CCAAT box and a TATA element in order to enable efficient transcription by RNA polymerase II. The cloning and sequencing of the GAL4-MMTV construct took place in analogy to the description of Sambrook J. et al. (Molecular cloning, Cold Spring Harbor Laboratory Press, 1989). Then the complete Photinus pyralis gene (Accession # M15077) was cloned in 3′-downstream of the GAL4-MMTV element. After sequencing, the luciferase reporter element consisting of five GAL4 binding sites, MMTV promoter and luciferase gene was recloned into a plasmid which confers zeocin resistance in order to obtain the plasmid pdeltaM-GAL4-Luc-Zeo. This vector was transfected into HEK cells in accordance with the statements in Ausubel, F. M. et al. (Current protocols in molecular biology, Vol. 1-3, John Wiley & Sons, Inc., 1995).
# In a second step, the PPARalpha fusion protein (GR-GAL4-humanPPARalpha-LBD was introduced into the stable cell clone described. For this purpose, initially the cDNA coding for the N-terminal 76 amino acids of the glucocorticoid receptor (Accession # P04150) was linked to the cDNA section coding for amino acids 1-147 of the yeast transcription factor GAL4 (Accession # P04386). The cDNA of the ligand-binding domain of the human PPARalpha receptor (amino acids S167-Y468; Accession # S74349) was cloned in at the 3′-end of this GR-GAL4 construct. The fusion construct prepared in this way (GR-GAL4-humanPPARalpha-LBD) was recloned into the plasmid pcDNA3 (Invitrogen) in order to enable constitutive expression therein by the cytomegalovirus promoter. This plasmid was linearized with a restriction endonuclease and stably transfected into the previously described cell clone containing the luciferase reporter element. The finished PPARalpha reporter cell line which contains a luciferase reporter element and constitutively expresses the PPARalpha fusion protein (GR-GAL4-human PPARalpha-LBD) was isolated by selection with zeocin (0.5 mg/ml) and G418 (0.5 mg/ml).
# The activity of PPARalpha agonists is determined in a 3-day assay, which is described below: […]
# [2] = target: T2, human PPARdelta (Homo sapiens, UniProt Q03181); assay: Cellular PPARdelta assay (HEK PPARdelta reporter cell line, luciferase); assay type: cell-based; conditions: GR-GAL4-humanPPARdelta-LBD
# T2 construct: human PPARdelta receptor (amino acids S139-Y441); expressed in transfected cells; host or cells: HEK cells, stably transfected (pcDNA3, CMV promoter)
# T2 sequence (Q03181 139-441): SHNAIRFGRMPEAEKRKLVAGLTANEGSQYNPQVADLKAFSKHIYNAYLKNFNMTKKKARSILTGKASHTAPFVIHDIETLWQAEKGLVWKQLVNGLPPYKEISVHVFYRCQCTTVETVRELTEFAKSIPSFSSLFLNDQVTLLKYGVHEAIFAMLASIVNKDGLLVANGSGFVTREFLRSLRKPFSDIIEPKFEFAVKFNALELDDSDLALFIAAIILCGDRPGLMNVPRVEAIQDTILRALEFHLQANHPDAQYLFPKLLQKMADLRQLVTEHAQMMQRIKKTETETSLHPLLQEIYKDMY
# Method: Determination of EC50 Values of PPAR Agonists in the Cellular PPARdelta Assay
# as §1, with “PPARdelta” for “PPARalpha”, “In analogy to the assay described for PPARalpha, the PPARdelta reporter cell line also” for “It”, “(GR-GAL4-humanPPARdelta-LBD)” for “(GR-GAL4-humanPPARalpha-LBD)”, “GR-GAL4-humanPPARdelta-LBD” for “GR-GAL4-humanPPARalpha-LBD”, “little” for “weak”, “stimulate” for “stimulate the”
# The production of the stable PPARdelta reporter cell line is based on a stable HEK-cell clone which was stably transfected with a luciferase reporter element. This step was already described above in the section “construction of the PPARalpha reporter cell line”. In a second step, the PPARdelta fusion protein (GR-GAL4-humanPPARdelta-LBD was stably introduced into this cell clone. For this purpose, the cDNA coding for the N-terminal 76 amino acids of the glucocorticoid receptor (Accession # P04150) was linked to the cDNA section coding for amino acids 1-147 of the yeast transcription factor GAL4 (Accession # P04386). The cDNA of the ligand-binding domain of the human PPARdelta receptor (amino acids S139-Y441; Accession # L07592) was cloned in at the 3′-end of this GR-GAL4 construct. The fusion construct prepared in this way (GR-GAL4-humanPPARdelta-LBD) was recloned into the plasmid pcDNA3 (Invitrogen) in order to enable constitutive expression by the cytomegalovirus promoter. This plasmid was linearized with a restriction endonuclease and stably transfected into the previously described cell clone containing the luciferase reporter element. The resulting PPARdelta reporter cell line which contains a luciferase reporter element and constitutively expresses the PPARdelta fusion protein (GR-GAL4-human PPARdelta-LBD) was isolated by selection with zeocin (0.5 mg/ml) and G418 (0.5 mg/ml).
# The activity of PPARdelta agonists is determined in a 3-day assay in exact analogy to the procedure already described for the PPARalpha reporter cell line except that the PPARdelta reporter cell line and a specific PPARdelta agonist was used as a standard to control test efficacy.
# [3] = diabetic animal model; cited from earlier work
# [4] = obese, insulin resistant rhesus monkeys; cited from earlier work
# [5] = rhesus and cynomolgus monkeys; cited from earlier work
# [6] = two weeks clinical trials in healthy volunteers; cited from earlier work
smiles,measurement,setting,value
"Cc1nc(-c2ccc(C(F)(F)F)cc2)sc1COc1ccc(-c2noc(=O)[nH]2)c(Cl)c1 [Example 4, 3-{2-Chloro-4-[4-methyl-2-(4-trifluoromethyl-phenyl)-thiazole-5-ylmethoxy]-phenyl}-4H-[1,2,4]oxadiazole-5-one]",EC50,[1],1.66 µM
same,EC50,[2],0.056 µM
"Cc1nc(-c2ccc(C(F)(F)F)cc2)sc1CSc1ccc(-c2noc(=O)[nH]2)cc1 [Example 5, 3-{4-[4-Methyl-2-(4-trifluoromethyl-phenyl)-thiazole-5-ylmethylsulfanyl]-phenyl}-4H-[1,2,4]oxadiazole-5-one]",EC50,[1],1.33 µM
same,EC50,[2],0.068 µM
"CCCCc1nc(-c2ccc(C(F)(F)F)cc2)sc1COc1ccc(Cc2noc(=O)[nH]2)c(Cl)c1 [Example 10, 3-{4-[4-Butyl-2-(4-trifluoromethyl-phenyl)-thiazol-5-ylmethoxy]-2-chloro-benzyl}-4H-[1,2,4]oxadiazol-5-one]",EC50,[1],0.77 µM
same,EC50,[2],0.011 µM
"CCCCc1nc(-c2ccc(C(F)(F)F)cc2)sc1COc1cc(F)c(-c2noc(=O)[nH]2)c(F)c1 [Example 13, 3-{4-[4-Butyl-2-(4-trifluoromethyl-phenyl)-thiazol-5-ylmethoxy]-2,6-difluoro-phenyl}-4H-[1,2,4]oxadiazol-5-one]",EC50,[1],0.36 µM
same,EC50,[2],0.01 µM
"CCCCc1nc(-c2ccc(C(F)(F)F)cc2)sc1COc1ccc(-c2noc(=O)[nH]2)c(C(F)(F)F)c1 [Example 15, 3-{4-[4-Butyl-2-(4-trifluoromethyl-phenyl)-thiazol-5-ylmethoxy]-2-trifluoromethyl-phenyl}-4H-[1,2,4]oxadiazol-5-one]",EC50,[1],0.15 µM
same,EC50,[2],0.003 µM
"CCCCc1nc(-c2ccc(C(F)(F)F)cc2)sc1COc1ccc(-c2noc(=O)[nH]2)c(OC)c1 [Example 18, 3-{4-[4-Butyl-2-(4-trifluoromethyl-phenyl)-thiazol-5-ylmethoxy]-2-methoxy-phenyl}-4H-[1,2,4]oxadiazol-5-one]",EC50,[1],> 10 µM
same,EC50,[2],0.015 µM
"O=c1[nH]c(-c2ccc(OCc3sc(-c4ccc(C(F)(F)F)cc4)nc3CCCCO)cc2Cl)no1 [Example 20, 3-{2-Chloro-4-[4-(4-hydroxy-butyl)-2-(4-trifluoromethyl-phenyl)-thiazol-5-ylmethoxy]-phenyl}-4H-[1,2,4]oxadiazol-5-one]",EC50,[1],1.56 µM
same,EC50,[2],0.055 µM
"CCCCc1nc(-c2ccc(C(F)(F)F)cc2)sc1COCc1ccc(-c2noc(=O)[nH]2)c(F)c1 [Example 28, 3-{4-[4-Butyl-2-(4-trifluoromethyl-phenyl)-thiazol-5-ylmethoxymethyl]-2-fluoro-phenyl}-4H-[1,2,4]oxadiazol-5-one]",EC50,[1],0.12 µM
same,EC50,[2],0.023 µM
"Cc1oc(-c2ccc(-c3ccccc3)cc2)nc1COc1ccc(-c2noc(=O)[nH]2)c(Cl)c1 [Example 30, 3-[4-(2-Biphenyl-4-yl-5-methyl-oxazol-4-ylmethoxy)-2-chloro-phenyl]-4H-[1,2,4]oxadiazol-5-one]",EC50,[1],0.25 µM
same,EC50,[2],0.016 µM
Cc1sc(-c2ccc(S(F)(F)(F)(F)F)cc2)nc1CCOc1ccc(-c2noc(=O)[nH]2)c(Cl)c1 [Example 32],EC50,[1],0.32 µM
same,EC50,[2],0.31 µM
"COCCOCc1nc(-c2ccc(C(F)(F)F)cc2)sc1COc1ccc(-c2noc(=O)[nH]2)c(Cl)c1 [Example 34, 3-{2-Chloro-4-[4-(2-methoxy-ethoxymethyl)-2-(4-trifluoromethyl-phenyl)-thiazol-5-ylmethoxy]-phenyl}-4H-[1,2,4]oxadiazol-5-one]",EC50,[1],0.23 µM
same,EC50,[2],0.001 µM
"O=c1[nH]c(-c2ccc(OCc3sc(-c4ccc(C(F)(F)F)cc4)nc3CCCOCc3ccccc3)cc2Cl)no1 [Example 50, 3-{4-[4-(3-Benzyloxy-propyl)-2-(4-trifluoromethyl-phenyl)-thiazol-5-ylmethoxy]-2-chloro-phenyl}-4H-[1,2,4]oxadiazol-5-one]",EC50,[1],0.42 µM
same,EC50,[2],0.0007 µM
CCCc1c(OCCCOc2ccc(OCC(=O)O)cc2)ccc(C(C)=O)c1O [Example L-165041],plasma cholesterol,[3],raises
Cc1cc(SCc2sc(-c3ccc(C(F)(F)F)cc3)nc2C)ccc1OCC(=O)O [GW501516],HDL-cholesterol,[4],raises
same,insulin levels,[4],decreases
same,plasma LDL-cholesterol,[4],decreases
same,triglycerides,[4],decreases
CCCc1c(OCCCSc2nnc(SCC(=O)O)s2)ccc(C(C)=O)c1O [YM-16638],plasma lipids,[5],significantly lowers
same,plasma lipids,[6],acts in a similar manner
